Paper PMC8380238, “Structure-based virtual screening of CYP1A1 inhibitors: towards rapid tier-one assessment of potential developmental toxicants” (Archives of Toxicology, 2021)
Where two headings read alike, the source gives them in different places.

Legend:
[1] = biological target: T1, human recombinant CYP1A1 (rCYP1A1) (Homo sapiens, UniProt P04798); conditions: recombinant enzyme
T1 sequence (P04798 1-512): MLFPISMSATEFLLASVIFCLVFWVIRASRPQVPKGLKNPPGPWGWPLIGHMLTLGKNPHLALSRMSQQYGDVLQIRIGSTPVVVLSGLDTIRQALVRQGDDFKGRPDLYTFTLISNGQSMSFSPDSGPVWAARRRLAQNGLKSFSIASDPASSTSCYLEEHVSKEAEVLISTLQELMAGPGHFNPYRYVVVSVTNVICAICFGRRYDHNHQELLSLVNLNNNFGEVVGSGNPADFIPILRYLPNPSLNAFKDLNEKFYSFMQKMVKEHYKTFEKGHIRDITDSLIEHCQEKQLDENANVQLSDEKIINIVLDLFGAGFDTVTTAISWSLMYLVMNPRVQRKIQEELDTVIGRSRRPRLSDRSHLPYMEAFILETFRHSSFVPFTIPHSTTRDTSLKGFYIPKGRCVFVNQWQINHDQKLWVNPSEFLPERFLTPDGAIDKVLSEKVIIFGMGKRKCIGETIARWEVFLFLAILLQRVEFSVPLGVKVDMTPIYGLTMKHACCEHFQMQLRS

[2] = biological target: T1, human recombinant CYP1A1 (rCYP1A1); experiment: CYP1A1 activity assay: inhibition of CEC metabolism (IC50)
[3] = test system: CYP1A1; conditions: cited from earlier work
[4] = biological target: T1, human recombinant CYP1A1 (rCYP1A1)
[5] = test system: CYP1A1; conditions: cited from earlier work; remark: listed apart in the source
[6] = biological target: T1, human recombinant CYP1A1 (rCYP1A1); experiment: CYP1A1 activity assay repeated at six CEC concentrations (Ki, α, mode of inhibition)
[7] = test system: human CYP1A1; conditions: cited from earlier work
[8] = CYP1A1 IC50 (range of colour key, Fig. 5a)
[9] = CYP1A1 Ki (range of colour key, Fig. 5b)

## O=P1(N(CCCl)CCCl)NCCCO1 (stereo not shown) [Cyclophosphamide, reference compound]
[1]
  IC50: ∞
[2]; [8]
  IC50: ≥ 1000 µM

## C[C@]12CC[C@@H]3c4ccc(O)cc4CC[C@H]3[C@@H]1C[C@@H](O)[C@@H]2O [Estriol]
[1]
  IC50: ∞
[2]; [8]
  IC50: ≥ 1000 µM

## CCCCc1oc2ccccc2c1C(=O)c1cc(I)c(OCCNCC)c(I)c1 [DEA, desethylamiodarone]
[3]
  Ki: 1.5 µM
  α: 5.7

## CC(=O)[C@H]1CC[C@H]2[C@@H]3CCC4=CC(=O)CC[C@]4(C)[C@H]3CC[C@]12C [Progesterone, reference compound]
[4]
  MOI (mode of inhibition): Competitive
[5]
  CYP1A1 substrate category: weak
[2]; [8]
  IC50: 10 to 100 µM
[2]; IC50
  IC50: 41 µM
[6]
  α (degree to which the binding of inhibitor changes the affinity of the enzyme for substrate): 4.3
[6]; [9]
  Ki: 15 to 20 µM
[6]; Ki
  Ki: 20 µM

## O=c1ccc2nc3ccc(OCc4ccccc4)cc3oc-2c1 [BzRes, resorufin benzyl ether]
[7]; ref Stresser et al. [2002]
  activity of human CYP1A1 on the fluorometric substrate: 0.457 pmol/min/pmol CYP1A1

## C[C@]12CC[C@H]3[C@@H](CCC4=CC(=O)CC[C@@]43C)[C@@H]1CC[C@@H]2O [Testosterone]
[5]
  CYP1A1 substrate category: weak

## COc1ccc2[nH]cc(CCNC(C)=O)c2c1 [Melatonin]
[5]
  CYP1A1 substrate category: strong

## C=CC(=C)CCC=C(C)C [β-Myrcene]
[4]
  MOI (mode of inhibition): Mixed
[2]; [8]
  IC50: 10 to 100 µM
[2]; IC50
  IC50: 52 µM
[6]
  α (degree to which the binding of inhibitor changes the affinity of the enzyme for substrate): 3.5
[6]; [9]
  Ki: 10 to 15 µM
[6]; Ki
  Ki: 11 µM

## CCCCOC(=O)c1ccccc1C(=O)OCCCC [Dibutyl phthalate]
[4]
  MOI (mode of inhibition): Competitive
[2]; [8]
  IC50: 10 to 100 µM
[2]; IC50
  IC50: 10 µM
[6]
  α (degree to which the binding of inhibitor changes the affinity of the enzyme for substrate): 13
[6]; [9]
  Ki: 1 to 10 µM
[6]; Ki
  Ki: 1.6 µM

## CC(=O)O[C@]1(C(C)=O)CC[C@H]2[C@@H]3C=C(Cl)C4=CC(=O)[C@@H]5C[C@@H]5[C@]4(C)[C@H]3CC[C@@]21C [Cyproterone acetate, reference compound]
[4]
  MOI (mode of inhibition): Competitive
[2]; [8]
  IC50: 1 to 10 µM
[2]; IC50
  IC50: 9.9 µM
[6]
  α (degree to which the binding of inhibitor changes the affinity of the enzyme for substrate): 7
[6]; CYP1A1 Ki (range of colour key, Fig. 5b), range assigned by colour of the point
  Ki: 1 to 10 µM
[6]; Ki, CEC 1.56-50.0 µM
  Ki: 8.8 µM

## CCOC(=O)c1ccccc1C(=O)OCC [Diethyl phthalate]
[4]
  MOI (mode of inhibition): Competitive
[2]; [8]
  IC50: 10 to 100 µM
[2]; IC50
  IC50: 38 µM
[6]; [9]
  Ki: 10 to 15 µM
[6]; Ki
  Ki: 10 µM

## CCOc1ccc2cc(C#N)c(=O)oc2c1 [CEC, 3-cyano-7-ethoxycoumarin]
[7]
  activity of human CYP1A1 on the fluorometric substrate: 40.2 pmol/min/pmol CYP1A1

## C[C@]12CC[C@@H]3c4ccc(O)cc4CC[C@H]3[C@@H]1CC[C@@H]2O [Estradiol, reference compound]
[4]
  MOI (mode of inhibition): Competitive
[5]
  CYP1A1 substrate category: strong
[2]; [8]
  IC50: 10 to 100 µM
[2]; IC50
  IC50: 43 µM
[6]
  α (degree to which the binding of inhibitor changes the affinity of the enzyme for substrate): 4.3
[6]; [9]
  Ki: 10 to 15 µM
[6]; Ki
  Ki: 13 µM

## CC(O)(CS(=O)(=O)c1ccc(F)cc1)C(=O)Nc1ccc(C#N)c(C(F)(F)F)c1 (stereo not shown) [Bicalutamide, reference compound]
[4]
  MOI (mode of inhibition): Mixed
[2]; [8]
  IC50: 10 to 100 µM
[2]; IC50
  IC50: 14 µM
[6]; [9]
  Ki: 1 to 10 µM
[6]; Ki
  Ki: 6.6 µM
